Assay results from US6476012B2, “Estradiol-16α-carboxylic acid esters as locally active estrogens” (Yale University, priority 2001, dated 2002).
Several values for one entry are separate records, joined by “and”; a condition that tells them apart may be missing. Identical values can stand only once. Counter-ions that a name gives are not always drawn.

What was measured:
[1] = system: alkaline phosphatase (AlkP) induction in Ishikawa cells; experiment: Estrogenic potency in Ishikawa cells: induction of AlkP; format: cell-based, human; conditions: for Ishikawa Cell AlkP RSA (relative stimulatory activity): induction of AlkP, E2 = 100, ± S.D.
Experimental: Estrogenic Potency in Ishikawa Cells. The estrogenic potency of the E2-analogs was determined in a estrogen bioassay, the induction of AlkP in human endometrial adenocarcinoma cells (Ishikawa) grown in 96-well microtiter plates as we have previously described.^28 In short, the cells are grown in phenol red free medium with estrogen depleted (charcoal stripped) bovine serum in the presence or absence of varying amounts of the steroids. […] After 3 days, the cells are washed, frozen and thawed, and then incubated with 5 mM p-nitrophenyl phosphate, a chromogenic substrate for the AlkP enzyme, at pH 9.8. To ensure linear enzymatic analysis, the plates are monitored kinetically for the for the production of p-nitrophenol at 405 nm. The relative stimulatory activity is determined by analysis of the curve fitting program Prism. Each compound was analyzed in at least 3 separate experiments performed in duplicate.

[2] = molecular target: T1, ER in rat uterine cytosol (ERα) (Rattus norvegicus, UniProt P06211); experiment: Competitive binding to the ER in rat uterine cytosol (RBA vs [3H]E2); conditions: for ER RBA (relative binding affinity): rat uterine estrogen receptor assay, E2 = 100, ± S.D.; for binding to the ER / RBA: uterine cytosol (ERα); for RBA: relative to E2
T1 construct: The uterus was removed and homogenized in ice-cold TEGDMo buffer; from tissue; host or cells: uterine cytosol of castrated female Sprague Dawley rats
T1 sequence (P06211 1-600): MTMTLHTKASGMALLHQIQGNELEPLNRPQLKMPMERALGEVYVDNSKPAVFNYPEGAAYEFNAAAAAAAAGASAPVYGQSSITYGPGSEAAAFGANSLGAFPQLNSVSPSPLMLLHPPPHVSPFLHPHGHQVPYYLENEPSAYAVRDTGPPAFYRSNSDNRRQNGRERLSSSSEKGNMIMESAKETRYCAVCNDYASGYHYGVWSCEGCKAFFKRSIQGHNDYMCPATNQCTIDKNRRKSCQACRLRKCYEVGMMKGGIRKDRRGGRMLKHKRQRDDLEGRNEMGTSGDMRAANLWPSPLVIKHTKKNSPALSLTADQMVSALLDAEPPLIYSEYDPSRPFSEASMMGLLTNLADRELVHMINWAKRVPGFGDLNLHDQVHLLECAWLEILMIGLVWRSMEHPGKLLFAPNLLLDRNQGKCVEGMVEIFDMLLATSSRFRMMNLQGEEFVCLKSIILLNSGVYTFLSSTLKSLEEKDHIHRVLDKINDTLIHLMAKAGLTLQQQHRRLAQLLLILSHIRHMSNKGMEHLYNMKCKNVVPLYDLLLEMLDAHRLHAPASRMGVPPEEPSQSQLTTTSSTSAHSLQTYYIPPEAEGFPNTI
Experimental: Competitive Binding to the Estrogen Receptor ERα and ERβ. […] The ER in uterine cytosol is ERα the classical form of the ER.^38 Female Sprague Dawley rats were castrated and sacrificed 24 h later. The uterus was removed and homogenized in ice-cold TEGDMo buffer (10 mM Tris, 1.5 mM Na2-EDTA, 10% (v/v) glycerol, 1.0 mM dithiothreitol, 25 mM sodium molybdate, pH 7.4 at 4° C.). and centrifuged at 105,000 g for 45 min at 4° C. The supernatant (cytosol) was frozen on dry ice and stored at −80° C. until assay. […] Incubations were carried out on ice overnight and bound radioactivity was separated from free by adsorption with dextran coated charcoal and quantified by counting.^26 Relative Binding Affinity (RBA) was determined by analysis of the displacement curves by the curve-fitting program Prism (Graph-Pad Software inc., San Diego, Calif.). The results shown in Table 1. below, are from at least 3 separate experiments performed in duplicate.

[3] = system: esterase(s) in rat hepatic microsomes; experiment: Esterase assay with rat hepatic microsomes; format: in vitro ADME; conditions: rat hepatic microsomes, E16-1,2 = 100; ± S.D.
Experimental: Esterase. Esterase activity was measured in rat hepatic microsomes essentially using the conditions described.^39 Liver obtained from Sprague-Dawley rats was washed with phosphate buffered saline and homogenized in 3 volumes of cold 0.25 M sucrose and centrifuged at 700 g for 10 min and then at 10,000 g for 20 min. The resulting supernatant was centrifuged at 105,000 g for 60 min. The pellet was suspended in 0.1 M phosphate buffer pH 7.4 and washed by centrifugation at 105,000 g for 60 min. The washed pellet was suspended in 0.1 M Tris-HCl pH 8.0 at a concentration of ˜13 mg protein/ml and frozen at −80° C. For assay, the pellets were thawed and diluted with the same buffer. The incubation mixture consisted of the microsomal enzyme preparation, 0.28 mg protein/ml, E2-16α-alkyl esters, 50 μM, added in 10 μL of ethanol, all in a final volume of 1 mL of Tris buffer pH 8.0. Since the rates of reaction are widely different for the various esters, the incubation times were varied accordingly to obtain linear kinetics. At several appropriate time points, 100 μL aliquots were withdrawn and the reaction was quenched with 33 μL CH3CN, followed by a 33 μL of a solution of THF containing 1 […] of the internal standard, 6-ketoestradiol. The quenched aliquot was centrifuged for several minutes on bench-top centrifuge and 80 μl of the supernatant was analyzed for the esterase-hydrolysis product (the corresponding E2-16α-carboxylic acid: E16-1,0 8; E16-2,0 23; E16-3,0 35) by reversed phase HPLC with system H-10 for E2-16-1 and E2-16-2 esters, and with system H-15 for E2-16-3 esters. The E2-16α-carboxyl products, (Rt for E16-1,0 8=7 min and for E16-2,0 23=9 min, E16-3,0 35=6.5 min) and the internal standard, 6-ketoestradiol (Rt 7.5 min in system H-10, and 5 min in system H-15) were quantified at 280 nm on the HPLC UV detector. The UV absorbance was converted to moles of product by comparison to standard curves and corrected for recovery of the internal standard, 6-ketoestradiol. The velocity of the reaction for each ester, in nmol product/min/ml/ was then normalized to the ester, E16-1,2 10 and is shown in Table 1 as relative hydrolytic activity (RHA). The enzymatic velocity for the hydrolysis of E16-1,2 10 was 0.9±0.2 (S.D.) nmol product/min/ml over the various experiments. Since all of the esters could not be tested simultaneously, in each case we compared the rate of hydrolysis of the test compound to that of E16-1,2 10 run concurrently. All compounds were tested in triplicate in 3 separate experiments.

human ERβ and ERα = experiment: Competitive binding to human ERβ and ERα expressed in Escherichia coli lysates (ratio of RBAs); conditions: RBAs (E2 = 100) in E. coli lysates expressing human ERβ and ERα separately

Row | ER RBA (relative binding affinity) [2] | Esterase RHA (relative hydrolytic activity) [3] | RBA [2] [%] | Compound | Ishikawa Cell AlkP RSA (relative stimulatory activity) [1] | binding to the ER [2] | RSA (estrogenic potency compared to E2) ([1]; Ishikawa AlkP) [%] | ERα/ERβ (ratio of the RBAs) (human ERβ and ERα)
1 | 28 ± 17 | 350 ± 50 | 28 | CCCCOC(=O)[C@@H]1C[C@H]2[C@@H]3CCc4cc(O)ccc4[C@H]3CC[C@]2(C)[C@H]1O [E16-1,4, n-Butyl (3,17β-dihydroxyestra-1,3,5(10)-trien-16α-yl) formate] | 1 ± 0 | – | – | –
2 | 14 ± 3 | 50 and 50 ± 5 | 7 | CC(C)(C)COC(=O)[C@@H]1C[C@H]2[C@@H]3CCc4cc(O)ccc4[C@H]3CC[C@]2(C)[C@H]1O [E16-1,5neo] | 1 ± 0.6 | – | – | –
3 | 7 ± 4 | 140 and 140 ± 10 | 7 | CC(C)OC(=O)[C@@H]1C[C@H]2[C@@H]3CCc4cc(O)ccc4[C@H]3CC[C@]2(C)[C@H]1O [E16-1,3i, Isopropyl (3,17β-dihydroxyestra-1,3,5(10)-trien-16α-yl) formate] | 0.1 ± 0.06 | – | – | –
4 | 7 ± 1 | 8,200 ± 1,800 | 7 | C[C@]12CC[C@@H]3c4ccc(O)cc4CC[C@H]3[C@@H]1C[C@@H](C(=O)OCC(F)(F)F)[C@@H]2O [E16-1,2F3, 2′,2′,2′-Trifluoroethyl (3,17β-dihydroxyestra-1,3,5(10)-trien-16α-yl) formate] | 3 ± 1 | – | – | –
5 | 5 ± 2 | 340 ± 30 | 5 | COC(=O)C[C@@H]1C[C@H]2[C@@H]3CCc4cc(O)ccc4[C@H]3CC[C@]2(C)[C@H]1O [E16-2,1, Methyl 3,17β-dihydroxyestra-1,3,5(10)-trien-16α-yl acetate] | 0.5 ± 0.1 | – | – | –
6 | 34 ± 9 | 230 and 230 ± 50 | – | CCCOC(=O)[C@@H]1C[C@H]2[C@@H]3CCc4cc(O)ccc4[C@H]3CC[C@]2(C)[C@H]1O [E16-1,3, Propyl (3,17β-dihydroxyestra-1,3,5(10)-trien-16α-yl) formate] | 2 ± 0 | – | – | –
7 | 10 ± 3 | 2,350 ± 275 | 10 | C[C@]12CC[C@@H]3c4ccc(O)cc4CC[C@H]3[C@@H]1C[C@@H](C(=O)OCC(F)F)[C@@H]2O [E16-1,2F2, 2′,2′-Difluoroethyl (3,17β-dihydroxyestra-1,3,5(10)-trien-16α-yl) formate] | 4 ± 1 | – | – | 1,800

Further lines, the molecule ahead of its results:

Row | Compound | ER RBA (relative binding affinity) [2] | Esterase RHA (relative hydrolytic activity) [3] | RBA [2] [%] | Ishikawa Cell AlkP RSA (relative stimulatory activity) [1] | binding to the ER [2] | RSA (estrogenic potency compared to E2) ([1]; Ishikawa AlkP) [%] | ERα/ERβ (ratio of the RBAs) (human ERβ and ERα)
8 | C[C@]12CC[C@@H]3c4ccc(O)cc4CC[C@H]3[C@@H]1C[C@@H](CC(=O)O)[C@@H]2O [E16-2,0, 3,17β-Dihydroxyestra-1,3,5(10)-trien-16α-yl acetic acid] | 0 | – | – | 0 | None of the parent carboxylic acid analogs, E16-1,0, E16-2,0 and E16-3,0 showed significant binding | – | –
9 | COC(=O)CC[C@@H]1C[C@H]2[C@@H]3CCc4cc(O)ccc4[C@H]3CC[C@]2(C)[C@H]1O [E16-3,1, Methyl 3-(3,17β-dihydroxyestra-1,3,5(10)-trien-16α-yl)propanoate] | 1 ± 1 | 910 ± 100 | 1 | 0 | – | – | –
10 | C[C@]12CC[C@@H]3c4ccc(O)cc4CC[C@H]3[C@@H]1C[C@@H](CCC(=O)O)[C@@H]2O [E16-3,0, 3-(3,17β-dihydroxyestra-1,3,5(10)-trien-16α-yl)propanioc acid] | 0.1 ± 0.1 | – | – | 0 | None of the parent carboxylic acid analogs, E16-1,0, E16-2,0 and E16-3,0 showed significant binding | – | –
11 | C[C@]12CC[C@@H]3c4ccc(O)cc4CC[C@H]3[C@@H]1C[C@@H](C(=O)O)[C@@H]2O [E16-1,0, 3,17β-dihydroxyestra-1,3,5(10)-trien-16α-carboxylic acid] | 0 | – | – | 0 | None of the parent carboxylic acid analogs, E16-1,0, E16-2,0 and E16-3,0 showed significant binding | – | –
12 | C[C@]12CC[C@@H]3c4ccc(O)cc4CC[C@H]3[C@@H]1CCC2=O [Compound E1, estrone, reference compound] | – | – | – | 7 ± 2 | – | 7 | –
13 | CCOC(=O)C[C@@H]1C[C@H]2[C@@H]3CCc4cc(O)ccc4[C@H]3CC[C@]2(C)[C@H]1O [E16-2,2, Ethyl (3,17β-dihydroxyestra-1,3,5(10)-trien-16α-yl) acetate] | 5 ± 1 | 700 ± 120 | 5 | 0.3 ± 0.1 | – | – | –
